Bridge positions count the residues as written; N and C are the ends. Square brackets hold non-standard residues; d marks the D form. Ends that are not written are not given here. cellulose = not defined here; βAla = NCCC(=O)O
Assays:
Assay type in all cases: binding
Parameters in all cases: key: No binding of immunoglobulin for the defined peptide variant, detection negative: 0; Binding of immunoglobulin for the defined peptide variant, detection positive: +
[1] = test system: immunoglobulins in human plasma; assay: Cellulose-immobilized 13-mer peptide variants incubated with human plasma, anti-human IgG-AP detection; settings: human plasma as sample, diluted 1:10,000 in blocking buffer, 3 h room temperature
In short: (§1)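 Peptides on cellulose via a (βA)(βA) spacer were blocked in T-TBS (pH 8.0) with 5% saccharose and 4% BSA, then exposed for 3 h at room temperature to IgG-Fc (1 μg/ml), serum diluted 1:10,000, or blocking buffer alone. Bound IgG was detected with AP-anti-human IgG (1.2 μg/ml) and NBT/BCIP colour development.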

serum albumin = assay: Cellulose-immobilized 13-mer peptide variants incubated with serum albumin (negative control), anti-human IgG-AP detection; settings: blocking buffer without addition, 3 h room temperature
In short: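 Membrane-bound peptides, spaced by two β-alanines, are probed with 1 μg/ml IgG-Fc or 1:10,000 serum for 3 h at room temperature; blocking buffer alone acts as control. Detection uses anti-human IgG-AP (1.2 μg/ml) and NBT/BCIP.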

human IgG-Fc = assay: Cellulose-immobilized 13-mer peptide variants incubated with human IgG-Fc, anti-human IgG-AP detection; settings: IgG-Fc 1 μg/ml in blocking buffer, 3 h room temperature
In short: as §1

Row | Result for incubation with human plasma (immunoglobulin binding detection) [1] | Result for incubation with serum albumin (immunoglobulin binding detection) (serum albumin) | Result for incubation with human IgG-Fc (immunoglobulin binding detection) (human IgG-Fc) | Substance
1 | 0 | 0 | 0 | 07C: cellulose-bound 13-mer variant DCAWHLCELVWCT-(βA)(βA) (DCAWHLCELVWCT-{βAla-βAla-cellulose}; not fully specified (N-terminus); printed as DCAWHLCELVWCT-(βA)(βA); cysteine pairing not given here; reading uncertain)
2 | 0 | 0 | 0 | 09F: cellulose-bound 13-mer variant DCAWHLGEFVWCT-(βA)(βA) (DCAWHLGEFVWCT-{βAla-βAla-cellulose}; disulfide 2-12 (inferred); reading uncertain; also: printed as DCAWHLGEFVWCT-(βA)(βA))
3 | 0 | 0 | 0 | 10P: cellulose-bound 13-mer variant DCAWHLGELPWCT-(βA)(βA) (DCAWHLGELPWCT-{βAla-βAla-cellulose}; disulfide 2-12 (inferred); reading uncertain; also: printed as DCAWHLGELPWCT-(βA)(βA))
4 | 0 | 0 | + | 01Q: cellulose-bound 13-mer variant QCAWHLGELVWCT-(βA)(βA) (QCAWHLGELVWCT-{βAla-βAla-cellulose}; disulfide 2-12 (inferred); reading uncertain; also: printed as QCAWHLGELVWCT-(βA)(βA))
5 | 0 | 0 | + | 04I: cellulose-bound 13-mer variant DCAIHLGELVWCT-(βA)(βA) (DCAIHLGELVWCT[βAla][βAla]; disulfide 2-12 (inferred); also: cellulose-bound)
6 | 0 | 0 | 0 | 07N: cellulose-bound 13-mer variant DCAWHLNELVWCT-(βA)(βA) (DCAWHLNELVWCT-{βAla-βAla-cellulose}; disulfide 2-12 (inferred); not fully specified (N-terminus); printed as DCAWHLNELVWCT-(βA)(βA); reading uncertain)
7 | 0 | 0 | + | 08A: cellulose-bound 13-mer variant DCAWHLGALVWCT-(βA)(βA) (DCAWHLGALVWCT-{βAla-βAla-cellulose}; disulfide 2-12 (inferred); not fully specified (N-terminus); printed as DCAWHLGALVWCT-(βA)(βA); reading uncertain)
8 | 0 | 0 | 0 | 09W: cellulose-bound 13-mer variant DCAWHLGEWVWCT-(βA)(βA) (DCAWHLGEWVWCT-{βAla-βAla-cellulose}; disulfide 2-12 (inferred); reading uncertain; also: printed as DCAWHLGEWVWCT-(βA)(βA))
9 | 0 | 0 | + | 09Q: cellulose-bound 13-mer variant DCAWHLGEQVWCT-(βA)(βA) (DCAWHLGEQVWCT-{βAla-βAla-cellulose}; disulfide 2-12 (inferred); reading uncertain; also: printed as DCAWHLGEQVWCT-(βA)(βA))
10 | 0 | 0 | 0 | 07V: cellulose-bound 13-mer variant DCAWHLVELVWCT-(βA)(βA) (DCAWHLVELVWCT-{βAla-βAla-cellulose}; disulfide 2-12 (inferred); not fully specified (N-terminus); printed as DCAWHLVELVWCT-(βA)(βA); reading uncertain)
11 | 0 | 0 | 0 | 11A: cellulose-bound 13-mer variant DCAWHLGELVACT-(βA)(βA) (DCAWHLGELVACT-{βAla-βAla-cellulose}; disulfide 2-12 (inferred); reading uncertain; also: printed as DCAWHLGELVACT-(βA)(βA))
12 | + | 0 | + | 06Q: cellulose-bound 13-mer variant DCAWHQGELVWCT-(βA)(βA) (DCAWHQGELVWCT-{βAla-βAla-cellulose}; disulfide 2-12 (inferred); not fully specified (N-terminus); printed as DCAWHQGELVWCT-(βA)(βA); reading uncertain)
13 | 0 | 0 | 0 | 03W: cellulose-bound 13-mer variant DCWWHLGELVWCT-(βA)(βA) (DCWWHLGELVWCT-{βAla-βAla-cellulose}; disulfide 2-12 (inferred); reading uncertain; also: printed as DCWWHLGELVWCT-(βA)(βA))
14 | 0 | 0 | 0 | 02S: cellulose-bound 13-mer variant DSAWHLGELVWCT-(βA)(βA) (DSAWHLGELVWCT[βAla][βAla]; not fully specified; printed as DSAWHLGELVWCT-(βA)(βA); also: cellulose-bound)
15 | 0 | 0 | + | 04Q: cellulose-bound 13-mer variant DCAQHLGELVWCT-(βA)(βA) (disulfide 2-12 (inferred); not fully specified (N-terminus, C-terminus); printed as DCAQHLGELVWCT-(βA)(βA); also: cellulose-bound)
16 | 0 | 0 | 0 | 03H: cellulose-bound 13-mer variant DCHWHLGELVWCT-(βA)(βA) (DCHWHLGELVWCT-{βAla-βAla-cellulose}; disulfide 2-12 (inferred); reading uncertain; also: printed as DCHWHLGELVWCT-(βA)(βA))

From patent US7205382B2, “Peptides, the production and use thereof for binding immunoglobulins” (Fresenius Medical Care Affina GmbH, priority 2000, dated 2007)
